Source: ChEMBL document CHEMBL1155497, “Double stranded DNA discrimination by di-pyrene modified gamma-cyclodextrin” (Bioorg Med Chem Lett, 2010)
Blank lines part the entries; values can stand above or below the molecule they belong to. Activity calls are given as the source filed them. No cut-off for these calls is given here.

Assays:
Format in all cases: nucleic-acid assay
Nucleic Acid [1] = assay: Binding affinity to double strand DNA assessed as increase in fluorescence intensity using 0.00075 uM of DNA at 0.3 uM by fluorescence spectroscopy technique
Nucleic Acid [2] = assay: Binding affinity to double strand DNA assessed as increase in fluorescence intensity using > 0.00075 uM of DNA at 0.3 uM by fluorescence spectroscopy technique
Nucleic Acid [3] = assay: Binding affinity to single strand DNA assessed as increase in fluorescence intensity at 0.3 uM by fluorescence spectroscopy technique
Nucleic Acid [4] = assay: Binding affinity to single strand DNA assessed as increase in fluorescence intensity using 0.00075 uM of DNA by fluorescence spectroscopy technique
Nucleic Acid [5] = assay: Binding affinity to single strand DNA assessed as increase in fluorescence intensity using > 0.00075 uM of DNA by fluorescence spectroscopy technique
Nucleic Acid [6] = assay: Binding affinity to double strand DNA assessed as increase in fluorescence intensity by fluorescence spectroscopy technique
Nucleic Acid [7] = assay: Binding affinity to double strand DNA assessed as increase in fluorescence intensity at 0.1 uM by fluorescence spectroscopy technique
Nucleic Acid [8] = assay: Binding affinity to single strand DNA assessed as increase in fluorescence intensity at 0.1 uM by fluorescence spectroscopy technique
Nucleic Acid [9] = assay: Binding affinity to double strand DNA assessed as increase in fluorescence intensity at 0.6 uM by fluorescence spectroscopy technique
Nucleic Acid [10] = assay: Binding affinity to single strand DNA assessed as increase in fluorescence intensity at 0.6 uM by fluorescence spectroscopy technique

Activity (Nucleic Acid [1]): Active | Activity (Nucleic Acid [2]): inactive | Activity (Nucleic Acid [3]): inactive
SMILES: O=C(NCCOCCOCCOCc1ccc2ccc3cccc4ccc1c2c34)SC[C@H]1O[C@@H]2O[C@H]3[C@H](O)[C@@H](O)[C@@H](O[C@H]4[C@H](O)[C@@H](O)[C@@H](O[C@@H]5[C@@H](CO)C[C@H](O[C@H]6[C@H](O)[C@@H](O)[C@@H](O[C@H]7[C@H](O)[C@@H](O)[C@@H](O[C@H]8[C@H](O)[C@@H](O)[C@@H](O[C@H]9[C@H](O)[C@@H](O)[C@@H](O[C@H]1[C@H](O)[C@H]2O)O[C@@H]9CO)O[C@@H]8CO)O[C@@H]7CO)O[C@@H]6CSC(=O)NCCOCCOCCOCc1ccc2ccc6cccc7ccc1c2c67)[C@H](O)[C@H]5O)O[C@@H]4CO)O[C@@H]3CO

Activity (Nucleic Acid [4]): Active | Activity (Nucleic Acid [5]): Active | Activity (Nucleic Acid [6]): Active
SMILES: CCCN(CCCN(C)C)C1=CC(Cc2sc3ccccc3[n+]2C)c2ccccc2N1c1ccccc1 (stereo not given)

Activity (Nucleic Acid [7]): inactive | Activity (Nucleic Acid [8]): inactive | Activity (Nucleic Acid [9]): inactive | Activity (Nucleic Acid [10]): inactive
SMILES: O=C(CSC[C@H]1O[C@@H]2O[C@@H]3[C@@H](CO)C[C@H](O[C@H]4[C@H](O)[C@@H](O)[C@@H](O[C@H]5[C@H](O)[C@@H](O)[C@@H](O[C@H]6[C@H](O)[C@@H](O)[C@@H](O[C@H]7[C@H](O)[C@@H](O)[C@@H](O[C@H]8[C@H](O)[C@@H](O)[C@@H](O[C@H]9[C@H](O)[C@@H](O)[C@@H](O[C@H]1[C@H](O)[C@H]2O)O[C@@H]9CO)O[C@@H]8CSCC(=O)NCCOCCOCCOCc1ccc2ccc8cccc9ccc1c2c89)O[C@@H]7CO)O[C@@H]6CO)O[C@@H]5CO)O[C@@H]4CO)[C@H](O)[C@H]3O)NCCOCCOCCOCc1ccc2ccc3cccc4ccc1c2c34
